Test results reported in patent US20170150719A1, “FUNGICIDAL PYRAZOLES AND THEIR MIXTURES” (E I DU PONT DE NEMOURS AND COMPANY, priority 2010, published 2017).
Read-outs that look alike come from different tables or passages of the source.

Assays:
Septoria nodorum = assay: Test E: Septoria glume blotch, preventive spray on wheat seedlings, visual disease rating; settings: Parastagonospora nodorum, in Triticum aestivum, read-out: Test E rating (disease control), Septoria glume blotch; 100 = 100% disease control, 0 = no disease control relative to the controls
Botrytis cinerea = assay: Test A: tomato Botrytis, preventive spray on tomato seedlings, visual disease rating; settings: Botrytis cinerea, in Solanum lycopersicum, read-out: Test A rating (disease control), tomato Botrytis; 100 = 100% disease control, 0 = no disease control relative to the controls
Septoria tritici = assay: Tests N1 and N2: growth inhibition of Septoria tritici on solid medium in 96-well plates, absorbance at 600 nm, observed and Colby expected; assay type: cell-based; settings: Zymoseptoria tritici; for inhibition at 0.00032 µM: Compound 81 alone 0.00032 μM; for inhibition at 0.0016 µM: Compound 81 alone 0.0016 μM; for inhibition at 0.008 µM: Compound 81 alone 0.008 μM; for inhibition at 0.04 µM: Compound 81 alone 0.04 μM; for inhibition at 0.2 µM: Compound 81 alone 0.2 μM
From the text: Tests N1 and N2 involved evaluation of mixtures of Compound 81 with 2-[(3-bromo-8-methyl-6-quinolinyl)oxy]-N-(1,1-dimethyl-2-propyn-1-yl)-2-(methylthio)acetamide (Compound A1) and 2-[(3-bromo-6-quinolinyl)oxy]-N-(1,1-dimethylethyl)butanamide (Compound A2), respectively, for inhibiting the growth of Septoria tritici (the causal agent of wheat leaf blotch). The general protocol for preparing test compositions was as follows. Compound 81 (Tests N1 and N2), Compound A1 (Test N1) and Compound A2 (Test N2) were obtained as unformulated, technical-grade materials. Unformulated test compounds were first dissolved in DMSO at the appropriate concentration to provide the desired concentration (in μM) after mixing with the fungal growth medium in the wells of 96-well plates containing 200 μL fungal growth medium per well. The ranges of compound concentrations were chosen to span a range of inhibitory activity from 0 to near 100% to identify any synergistic action when Septoria tritici was treated with compounds added in combination. The DMSO solutions of the test compounds were added to the wells prior to addition of the fungal growth medium.
The fungal growth solid medium was prepared by forming an aqueous mixture containing dipotassium hydrogen phosphate (3.0 g/L), potassium dihydrogen phosphate (4.0 g/L), sodium chloride (0.5 g/L), ammonium chloride (1.0 g/L), magnesium sulfate heptahydrate ([…]) and calcium chloride dihydrate (0.01 g/L), also containing 1 mL/L of a trace element solution (manganese sulfate hydrate (0.1 mg/mL), zinc sulfate heptahydrate (0.2 mg/mL), copper(II) sulfate pentahydrate (0.2 mg/mL), iron(II) sulfate heptahydrate (0.2 mg/mL), sodium molybdate dihydrate (0.1 mg/mL), cobalt(II) sulfate heptahydrate (0.06 mg/mL), boric acid (0.08 mg/mL)), and supplemented with 50 μL/L of a biotin stock solution (0.1 mg/mL). The pH was adjusted to 6.8 with aqueous 1 M sodium carbonate solution. The mixture was further supplemented with 1 g/L of yeast extract, and GELRITE gellan gum (Kelco) (4 g/L) was added. Sufficient water was added to bring the volume to 90% of final volume (e.g., 900 mL volume for preparation of 1 L of fungal growth medium). The mixture was autoclaved. On cooling to 60° C., 100 mL/L of aqueous dextrose solution (10 g/L), 500 μL/L of aqueous ampicillin solution (100 mg/mL) and 500 μL/L of rifampicin solution (10 mg/mL in DMSO) were added to provide the final volume of fungal growth medium, which was then dispensed while still warm using a microliter pipette to the wells of the 96-well plates. The dispensed fungal growth medium in each well was agitated using the tip of the dispensing pipette to mix it with the DMSO solution containing the test compounds.
After the fungal growth medium in the wells had cooled to room temperature and solidified, the top surface of the growth medium in each well was inoculated with 20 μL of a suspension of fungus containing 8×10^4 cells. Following a 2 h period of drying in a sterile hood, plates were placed in a dark incubator at 25° C. for 5 d.
Fungal growth was assessed on a plate reader set to measure absorbance of 600 nm light. The percent growth inhibition observed (Obsd.) in Tests N1 and N2, as well as the percent growth inhibition expected (Exp.) from calculation using the Colby equation, are listed in Tables L and M, respectively.

[1] = read-out: % inhibition Obsd. (Test N1)
[2] = read-out: % inhibition Obsd. (Test N2)

Structure (SMILES): Cc1nn(C)c(Nc2c(F)cc(Cl)cc2F)c1-c1ccc(F)cc1Cl [Compound 81, N-(4-chloro-2,6-difluorophenyl)-4-(2-chloro-4-fluorophenyl)-1,3-dimethyl-1H-pyrazole-5-amine]
- pest or weed control at 200 µg/mL (Septoria nodorum): 90%
- pest or weed control at 200 µg/mL (Botrytis cinerea): 100%
- inhibition at 0.00032 µM (Septoria tritici; [1]): 9%
- inhibition at 0.00032 µM (Septoria tritici; [2]): 0%
- inhibition at 0.0016 µM (Septoria tritici; [1]): 5%
- inhibition at 0.0016 µM (Septoria tritici; [2]): 0%
- inhibition at 0.008 µM (Septoria tritici; [1]): 10%
- inhibition at 0.008 µM (Septoria tritici; [2]): 29%
- inhibition at 0.04 µM (Septoria tritici; [1]): 93.5%
- inhibition at 0.04 µM (Septoria tritici; [2]): 93.5%
- inhibition at 0.2 µM (Septoria tritici; [1]): 98%
- inhibition at 0.2 µM (Septoria tritici; [2]): 96%
